The source of these data is US20030176351A1, “Peptides and peptide analogues designed from a diabetes-associated autoantigen, and methods for their use in the treatment and prevention of diabetes” (priority 1999, published 2003).

Read-outs that look alike come from different tables or passages of the source.

The subject of assay [1] is T cells from Patient #6211. Kind of assay: γIFN response of serially expanded T cells from Patient #6211 restimulated with GAD65 peptides and autologous APC. It is filed as cell-based, human. Conditions: T cells from Patient #6211 expanded in serial culture, autologous APC. On the procedure: 10^5 thawed and irradiated DRB1*0404, DRB1*0405, or control (non-DR4) peripheral blood lymphocytes (PBL) in a volume of 100 μl were added to wells of 96 V-bottom plates containing peptide or medium and allowed to incubate for 2-3 hours at which time 4×10^4 T cells were added for a total volume of 200 μl-250 μl. At 20-24 hours of coculture, supernatants were harvested for cytokine determination and the wells replenished with fresh medium. At 48 hours, wells were radiolabeled with 1 μCi H^3-thymidine and cultured for an additional 18 hr. The plates were harvested on a TomTec Manual Mach III harvester and incorporated thymidine (as cpm) was determined by liquid spectroscopy on a Wallac Microbeta LSC.
Traditional sandwich ELISA were performed to test the supernatants for human γIFN, using matched antibody sets obtained from Endogen. The plates were read at 405 nm on a Microplate reader (Bio-Tek). The concentration of cytokine was estimated from standard curves using linear regression.
T cells from Patient #6211 were expanded in serial culture by restimulation with GAD65 peptides incubated with autologous APC. Specific T cell responses were present for both peptides 553-572 (53 pg/ml γIFN) and 555-567 (51 pg/ml γIFN), but not peptide 569-585 (5 pg/ml γIFN), localizing the minimal epitope to the 555-567 region. T cell clones were derived by expansion of this culture; proliferation, and cytokine response profiles for CD4^+ T cell clones BRI.4-10 and BRI.4-11 are shown in FIGS. 1A and 1B.

Another assay has as its system DR4. The conditions noted are these: Wicker et al, 1996; cited from earlier work.
In a further assay the test system is T cell clone BRI.4-11. Kind of assay: prepulse antagonism assay, response to GAD65 555-567, clone BRI.4-11. It is filed as cell-based, human.
For another assay, the target named is DR4 molecules (Homo sapiens, UniProt P01903+P01911, A100K/A169T/F76Y/I96L/K127E/L162R/M171V/N62H/P40V/Q125Y/R42H/S133A/S149N/S66Y/V115G/V209L/W38E). In words: standard DR4-peptide fluorescent binding assay.
The test system of another assay is T cell clone BRI.4-10. Kind of assay: prepulse antagonism assay, response to GAD65 555-567, clone BRI.4-10. It is filed as cell-based, human.

For the molecule “553-572: GAD65 peptide of residues 553-572 (KVNFFRMVISNPAATHQDID; UniProt Q05329 553-572, looked up, fragment)”, the “γIFN, specific T cell response” value in assay [1] amounted to 53 pg/mL.
As for “554-566: GAD65 554-566 sequence, DR4-binding peptide of Wicker et al (VNFFRMVISNPAA; UniProt Q05329 554-566, looked up, fragment)”, in the assay with DR4, the “DR4 binding avidity among GAD65 peptides” value is listed as “most avid binding peptide identified”.
Consider “569-585: GAD65 peptide of residues 569-585 (QDIDFLIEEIERLGQDL; UniProt Q05329 569-585, looked up, fragment)”, for which the “γIFN, specific T cell response” value in assay [1] was determined as 5 pg/mL.
With `CC[C@H](C)[C@H](NC(=O)[C@@H](NC(=O)[C@H](CCSC)NC(=O)[C@H](CCCNC(=N)N)NC(=O)[C@H](Cc1ccccc1)NC(=O)[C@H](Cc1ccccc1)NC(=O)[C@@H](N)CC(N)=O)C(C)C)C(=O)N[C@@H](CO)C(=O)N[C@@H](CC(N)=O)C(=O)N1CCC[C@H]1C(=O)N[C@@H](C)C(=O)N[C@@H](C)C(=O)N[C@H](C(=O)O)[C@@H](C)O` [555-567], the “γIFN, specific T cell response” value in assay [1] came out at 51 pg/mL.
With `CSCC[C@H](NC(=O)[C@H](CCCNC(=N)N)NC(=O)[C@H](Cc1ccccc1)NC(=O)[C@H](Cc1ccccc1)NC(=O)[C@@H](N)CC(N)=O)C(=O)N[C@H](C(=O)N[C@@H](CC(C)C)C(=O)N[C@@H](CO)C(=O)N[C@@H](CC(N)=O)C(=O)N1CCC[C@H]1C(=O)N[C@@H](C)C(=O)N[C@@H](C)C(=O)N[C@H](C(=O)O)[C@@H](C)O)C(C)C` [561 L], the “antagonism of proliferative response (in words)” value in the assay with T cell clone BRI.4-11 (clone BRI.4-11, highest concentration tested, APC pre-pulsed with agonist peptide) is reported as “partially antagonized”.
As for `CSCC[C@H](NC(=O)[C@H](CCCNC(=N)N)NC(=O)[C@H](Cc1ccccc1)NC(=O)[C@H](Cc1ccccc1)NC(=O)[C@@H](N)CC(N)=O)C(=O)N[C@H](C(=O)N[C@@H](CCSC)C(=O)N[C@@H](CO)C(=O)N[C@@H](CC(N)=O)C(=O)N1CCC[C@H]1C(=O)N[C@@H](C)C(=O)N[C@@H](C)C(=O)N[C@H](C(=O)O)[C@@H](C)O)C(C)C` [561 M], the IC50 at DR4 molecules was found to be 400 nM. Further, the “reduction of T cell proliferative response” value with T cell clone BRI.4-10 (clone BRI.4-10, APC pre-pulsed with agonist peptide 555-567) is reported as 80%. Besides, the “antagonism of γIFN cytokine response (in words)” value in the assay with T cell clone BRI.4-10 (clone BRI.4-10, APC pre-pulsed with agonist peptide 555-567, FIG. 2B) was “similarly antagonized”. Moreover, the “antagonism of T cell responses (proliferation and γIFN, FIGS. 2C and 2D)” value with T cell clone BRI.4-11 (clone BRI.4-11, APC pre-pulsed with agonist peptide 555-567) was “more than 90%”.
VNFFRMVISNPAATHQD [GAD 554-570]: at DR4 molecules (read-out: peptide binding: concentration of peptide giving 50% inhibition of a standard DR4-peptide fluorescent binding assay), the IC50 amounted to 600 nM.
